# “And” between values parts separate entries of the source, which are not always exact repeats. Equal values may be shown once.
# How the values were obtained:
# [1] = tested on: anti 25-hydroxy Vitamin D monoclonal antibody labeled with acridinium ester (monoclonal antibody 10H9); test: Cross-reactivity in ADVIA Centaur Vitamin D Total assay; type: binding, mouse
# Protocol: Biological sample is added to a reaction cuvette followed by displacement buffer and allowed to react for 4.5 minutes. Monoclonal antibody conjugated to acridinium ester is added and allowed to react for 5.5 minutes to bind 25-hydroxyvitamin D in the sample. […] The reaction cuvette is washed, and acid and base reagents are added to initiate the chemiluminescent reaction. The time-to-result is 18 minutes. An inverse relationship exists between the amount of 25-hydroxyvitamin D in the patient sample and the amount of relative light units (RLUs) detected by the system.
# Assay: The ADVIA Centaur Vitamin D Total assay is a one-pass, 18-minute antibody competitive immunoassay that uses an antifluorescein-labeled monoclonal antibody covalently bound to paramagnetic particles (PMPs), one monoclonal antibody labeled with acridinium ester (AE), and a vitamin D analog labeled with fluorescein (FIG. 8). The Vitamin D Total assay requires 20 μL of sample volume for a single determination. The time-to-first-result is 18 minutes and the throughput is 240 tests/hour.
# Briefly, the first step of the sequential step hapten/antibody competitive immunoassay using chemiluminescent technology begins with the analyzer dispensing 20 μL of biological sample into a cuvette followed by addition of 200 μl of displacement buffer (50 mM HEPES, 150 mM NaCl, 0.09% sodium azide, pH=7.5) containing 8-anilino-1-naphthalenesulfonic acid ammonium salt (Sigma-aldrich, St. Louis, MO) and ethylene glycol (Sigma-aldrich, St. Louis, MO) and incubation for 4.5 minutes at 37° C. Lite Reagent (50 μL) containing an anti 25-hydroxy Vitamin D monoclonal antibody labeled with acridinium ester (monoclonal antibody 10H9) is added to the mixture and incubated for 5.5 min at 37° C. C22-PEG-BSA-fluorescein conjugate (50 μL) and anti-fluorescein monoclonal antibody coated paramagnetic microparticles (100 μL) are added to the mixture and incubated for 3.75 minutes at 37° C. The fourth step is separation of Solid Phase complex with bound C22-PEG-BSA-fluorescein conjugate and anti 25-hydroxy vitamin D monoclonal antibody labeled with acridinium ester, followed by washing three times to remove any free Lite Reagent. Last is the sequential dispensing of 300 μL each of acid reagent then base reagent to initiate the chemiluminescent reaction. The total incubation time from sample to result is 18 minutes. There is an indirect relationship between the amount of 25-hydroxy vitamin D present in the biological sample and the amount of chemiluminescence quantified as relative light units (RLUs). In the Centaur-based assay, there is an inverse relationship between RLUs emitted by the acridinium ester and the amount of vitamin D because the 25-hydroxyvitamin D released from the carrier protein in the plasma competes with the Vitamin D-BSA-Fluorescein for binding with a limited amount of the acridinium-labeled 10H9 monoclonal antibody. Higher levels of 25(OH)D in the patient sample would lower the amount of the acridinium-MAb-VitD-BSA-Fluorescein complex on the magnetic particles resulting in lower RLUs.
# Cross-reactivity: Five vitamin D derivatives were analyzed using the ADVIA Centaur Vitamin D Total assay. The vitamin D derivatives were spiked into a sample containing 27 ng/mL of vitamin D total. Three replicates of the spiked samples were assayed and the vitamin D total concentration determined.
# [2] = tested on: BALB/c mice; test: ELISA of sera from mice immunized with vitamin D-C22 BSA; type: in vivo, mouse; conditions: coat Vit D C22 Lc-BSA 500 ng/mL, individual mice 0-4 in c3-c7
# Protocol: Experiments were conducted to produce antibodies that could preferentially bind to molecules having structural aspects of the vitamin D-C22 antigenic molecule. These experiments were conducted in accordance with the method of Galfre et al. (Nature, 266:550 (1977)), as modified by Oi and Herzenberg (Selected Methods in Cellular Immunology (1980)). Initially, BALB/c mice were immunized with vitamin D-C22 BSA emulsified in Freund's Complete adjuvant followed by a secondary immunization using Freund's Incomplete adjuvant. Sera of immunized mice were collected two weeks after the secondary immunization.
# Collected sera were tested for antigen reactivity by ELISA as follows: microtiter plates coated with vitamin D-C22 BSA were incubated with mouse antisera, diluted in dilution buffer, for one hour. Plates were washed and a secondary antibody (goat-anti-mouse IgG) conjugated to horseradish peroxidase (HRPO) in dilution buffer was added and incubated for 30 minutes. Plates were washed and the colorimetric substrate 3,3′,5,5′-tetramethylbenzidine (TMB) was added. The generated color was stopped using 1N sulfuric acid and the optical density was measured at 450 nm.
# [3] = crossreactant 100 ng/mL spiked, expected (endogenous) vitamin D total 27 ng/mL
molecule,measurement,setting,value
C=C1CC[C@@H](O)C/C1=C/C=C1\CCC[C@]2(C)[C@@H]([C@H](C)CCCC(C)(C)O)CC[C@@H]12 [3-epi-25(OH)D3],Cross-reactivity (in words),[1],very low cross-reactivity
same,Cross-reactivity,[1]; [3],0.0%
"C=C1CC[C@H](O)C/C1=C/C=C1\CCC[C@]2(C)[C@@H]([C@H](C)/C=C/[C@H](C)C(C)(C)O)CC[C@@H]12 [25-(OH)-Vit D2, 25-hydroxyvitamin D2]",Cross-reactivity,[1]; at 50 ng/mL,105%
same,Cross-reactivity,"[1]; crossreactant 30 ng/mL spiked, expected (endogenous) vitamin D total 27 ng/mL",102%
"C=C1CC[C@H](O)C/C1=C/C=C1\CCC[C@]2(C)[C@@H]([C@H](C)CCCC(C)(C)O)CC[C@@H]12 [25-(OH)-Vit D3, 25-hydroxyvitamin D3]",Cross-reactivity,"[1]; crossreactant 27 ng/mL, expected (endogenous) vitamin D total 0 ng/mL",100%
C=C1CC[C@H](O)C/C1=C/C=C1\CCC[C@]2(C)[C@@H]([C@H](C)/C=C/[C@H](C)C(C)C)CC[C@@H]12 [Vitamin D2],Cross-reactivity (in words),[1],very low cross-reactivity
same,Cross-reactivity,[1]; [3],0.04%
C=C1CC[C@H](O)C/C1=C/C=C1\CCC[C@]2(C)[C@@H]([C@H](C)CCCC(C)C)CC[C@@H]12 [Vitamin D3],Cross-reactivity (in words),[1],very low cross-reactivity
same,Cross-reactivity,[1]; [3],0.04%
vitamin D-C22 diaminobutane-suberoyl-BSA [Vit D C22],optical density at 450 nm,[2]; serum dilution 1:100,3.747 and 3.687 and 3.625 and 3.700 and 3.652
same,optical density at 450 nm,[2]; serum dilution 1:200,3.750 and 3.693 and 3.649 and 3.663 and 3.634
same,optical density at 450 nm,[2]; serum dilution 1:400,3.602 and 3.640 and 3.633 (2×) and 3.441
same,optical density at 450 nm,[2]; serum dilution 1:800,3.634 and 3.731 and 3.603 and 3.708 and 3.696
same,optical density at 450 nm,[2]; serum dilution 1:1600,3.578 and 3.605 and 3.532 and 3.638 and 3.687
same,optical density at 450 nm,[2]; serum dilution 1:3200,3.534 and 3.508 and 3.171 and 3.454 and 3.608
same,optical density at 450 nm,[2]; serum dilution 1:6400,3.177 and 3.133 and 2.533 and 3.057 and 3.473
same,optical density at 450 nm,[2]; serum dilution 1:12800,2.449 and 2.406 and 1.731 and 2.325 and 3.042
